In patent US5652100A, “Stably transfected rodent fibroblast cell lines expressing human GABA-A -receptors” (priority 1992, dated 1997):
Like-named read-outs stand apart in the source and are kept apart here.

Biological target: T1, recombinant GABAA receptor (α1 β1 γ2L) expressed by population A cells (Bos taurus, UniProt P08219+P08220+P22300)
T1 construct: expressed in transfected cells; clone 'population A'
T1 sequence (P08219 28-456): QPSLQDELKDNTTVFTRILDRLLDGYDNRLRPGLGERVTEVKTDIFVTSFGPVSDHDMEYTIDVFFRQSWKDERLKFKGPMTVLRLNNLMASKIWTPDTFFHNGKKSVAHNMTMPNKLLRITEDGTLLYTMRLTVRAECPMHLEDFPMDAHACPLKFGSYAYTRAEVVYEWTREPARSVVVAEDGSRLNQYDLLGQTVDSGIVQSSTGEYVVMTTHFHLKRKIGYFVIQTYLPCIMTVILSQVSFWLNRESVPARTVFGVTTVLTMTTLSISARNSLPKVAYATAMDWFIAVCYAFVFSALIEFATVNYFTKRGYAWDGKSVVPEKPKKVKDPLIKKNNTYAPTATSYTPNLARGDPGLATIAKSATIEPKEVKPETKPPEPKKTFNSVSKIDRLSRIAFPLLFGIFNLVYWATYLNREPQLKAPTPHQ
T1 sequence (P08220 26-474): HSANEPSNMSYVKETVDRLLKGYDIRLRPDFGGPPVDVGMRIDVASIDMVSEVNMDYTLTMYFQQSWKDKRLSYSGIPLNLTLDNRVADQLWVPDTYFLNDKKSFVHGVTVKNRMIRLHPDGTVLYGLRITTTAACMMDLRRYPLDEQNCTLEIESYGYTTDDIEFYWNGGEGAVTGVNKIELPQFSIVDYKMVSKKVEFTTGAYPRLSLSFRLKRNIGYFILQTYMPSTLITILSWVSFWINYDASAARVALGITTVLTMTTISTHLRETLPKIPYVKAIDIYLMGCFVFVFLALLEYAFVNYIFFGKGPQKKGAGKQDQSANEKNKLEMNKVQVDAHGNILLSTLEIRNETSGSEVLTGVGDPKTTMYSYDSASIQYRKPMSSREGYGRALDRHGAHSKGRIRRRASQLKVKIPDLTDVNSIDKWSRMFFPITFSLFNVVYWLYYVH
T1 sequence (P22300 40-475): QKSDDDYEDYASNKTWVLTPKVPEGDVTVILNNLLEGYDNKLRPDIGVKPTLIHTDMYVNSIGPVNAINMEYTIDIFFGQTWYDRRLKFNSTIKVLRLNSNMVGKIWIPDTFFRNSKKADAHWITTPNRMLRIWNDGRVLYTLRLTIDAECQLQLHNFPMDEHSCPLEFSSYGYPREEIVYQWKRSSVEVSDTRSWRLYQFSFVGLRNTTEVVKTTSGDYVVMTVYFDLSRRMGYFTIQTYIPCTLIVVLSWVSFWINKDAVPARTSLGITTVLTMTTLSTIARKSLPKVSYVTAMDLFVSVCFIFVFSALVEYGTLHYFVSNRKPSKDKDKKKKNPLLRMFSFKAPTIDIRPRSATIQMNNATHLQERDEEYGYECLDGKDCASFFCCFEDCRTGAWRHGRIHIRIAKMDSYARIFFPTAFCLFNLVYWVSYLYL
Assay type: cell-based, bovine
Description: The nature of the GABAA receptor expressed by population A cells has been extensively characterised by electrophysiological techniques, using whole cell patch clamp.

[1] = whole cell patch clamp, qualitative

Compound | potentiation of the response to GABA [1] | antagonism of the response to GABA [1] | other results
Cc1nnc2ccc(-c3cccc(C(F)(F)F)c3)nn12 [CL218872] | – | – | potentiation of the response to GABA: potentiated
CCCC(C)C1(CC)C(=O)NC(=O)NC1=O (stereo not drawn) [pentobarbitone] | potentiated | – | –
CN1CCc2cc3c(cc2[C@H]1[C@@H]1OC(=O)c2c1ccc1c2OCO1)OCO3 [bicuculline] | – | antagonised | –
picrotoxin | – | antagonised | –
CC(=O)[C@H]1CC[C@H]2[C@@H]3CC[C@H]4C[C@H](O)CC[C@]4(C)[C@H]3C(=O)C[C@]12C [alphaxalone] | potentiated | – | –
NCCCC(=O)O [GABA, Gamma-amino butyric acid] | – | – | Hill coefficient of GABA concentration response curves (dexamethasone-induced cells, whole cell patch clamp): 1.9
